{
  "source": "patent US7674801B2",
  "about": "(AstraZeneca AB, priority 2006, dated 2010)",
  "data": [
    {"target": "S. aureus (SAU) GyrB ATPase (Staphylococcus aureus, UniProt P0A0K8)", "sequence (P0A0K8 whole entry)": "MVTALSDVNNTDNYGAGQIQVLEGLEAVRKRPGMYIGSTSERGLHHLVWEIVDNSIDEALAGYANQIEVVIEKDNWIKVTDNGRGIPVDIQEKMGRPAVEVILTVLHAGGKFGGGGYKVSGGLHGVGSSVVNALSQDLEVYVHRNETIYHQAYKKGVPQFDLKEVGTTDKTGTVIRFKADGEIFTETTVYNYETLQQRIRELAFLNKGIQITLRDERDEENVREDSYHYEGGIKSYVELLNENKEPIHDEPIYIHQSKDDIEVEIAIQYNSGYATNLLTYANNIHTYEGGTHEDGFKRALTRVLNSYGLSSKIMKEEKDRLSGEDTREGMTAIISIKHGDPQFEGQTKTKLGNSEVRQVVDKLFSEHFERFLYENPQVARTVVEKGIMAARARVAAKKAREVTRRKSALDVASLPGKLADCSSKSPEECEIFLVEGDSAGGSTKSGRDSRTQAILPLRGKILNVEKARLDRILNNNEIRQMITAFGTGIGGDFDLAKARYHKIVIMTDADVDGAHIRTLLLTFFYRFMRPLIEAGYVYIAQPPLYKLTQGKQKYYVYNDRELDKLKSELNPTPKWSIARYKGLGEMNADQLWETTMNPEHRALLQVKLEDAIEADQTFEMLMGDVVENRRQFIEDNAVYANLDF", "sequence (P0AES4 whole entry, further chain)": "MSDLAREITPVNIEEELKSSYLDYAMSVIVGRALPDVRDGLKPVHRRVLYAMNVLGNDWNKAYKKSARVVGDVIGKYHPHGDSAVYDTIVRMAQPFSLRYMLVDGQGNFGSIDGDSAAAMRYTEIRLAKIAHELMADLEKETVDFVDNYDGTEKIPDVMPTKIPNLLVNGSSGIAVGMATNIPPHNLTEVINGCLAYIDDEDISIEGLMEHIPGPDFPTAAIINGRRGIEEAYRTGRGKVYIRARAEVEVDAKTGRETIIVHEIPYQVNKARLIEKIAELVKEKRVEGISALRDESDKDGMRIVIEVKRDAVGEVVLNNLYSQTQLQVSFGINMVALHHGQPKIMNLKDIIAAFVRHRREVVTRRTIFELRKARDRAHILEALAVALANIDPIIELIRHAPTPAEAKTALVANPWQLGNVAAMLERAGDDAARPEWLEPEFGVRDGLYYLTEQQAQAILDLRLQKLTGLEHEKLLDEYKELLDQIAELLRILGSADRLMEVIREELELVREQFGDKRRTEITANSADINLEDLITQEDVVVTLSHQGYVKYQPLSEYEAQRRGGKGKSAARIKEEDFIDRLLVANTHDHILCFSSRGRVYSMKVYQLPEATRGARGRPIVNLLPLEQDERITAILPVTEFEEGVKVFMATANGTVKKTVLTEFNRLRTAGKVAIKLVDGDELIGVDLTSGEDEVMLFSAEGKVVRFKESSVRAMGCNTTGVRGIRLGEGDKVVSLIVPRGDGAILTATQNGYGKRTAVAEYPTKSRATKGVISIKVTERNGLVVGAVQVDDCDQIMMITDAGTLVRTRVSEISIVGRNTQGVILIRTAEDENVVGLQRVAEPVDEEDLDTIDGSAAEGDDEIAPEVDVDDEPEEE", "assay": "S. aureus GyrB ATPase inhibition, ammonium molybdate/malachite green phosphate detection assay", "type": "biochemical", "conditions": "read-out: S. aureus (SAU) GyrB ATPase % Inhibition, compound concentration 12.5 μM", "procedure,_shortened": "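Phosphate from ATP hydrolysis (500 μM ATP) read as malachite green/molybdate absorbance at 650 nm after acid quench. Reaction: 1.25 nM S. aureus GyrB plus 1.25 nM E. coli GyrA, sheared DNA, Hepes pH 7.5 with Mg2+. IC50 fitted over 10 concentrations, normalised to DMSO (2%) and novobiocin (2 μM) controls.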", "units": {"inhibition at 12.5 µM": "%"}, "values": [
      {"smiles": "CCNC(=O)Nc1cc(-c2nc(CC)cs2)c(-c2cncc(C(=O)NC)c2)cn1", "note": "[Example 107, 6′-{[(Ethylamino)carbonyl]amino}-4′-(4-ethyl-1,3-thiazol-2-yl)-N-methyl-3,3′-bipyridine-5-carboxamide]", "inhibition at 12.5 µM": 84},
      {"smiles": "CCCCNC(=O)c1nc(-c2ccc(NC(=O)NCC)nc2)sc1C(=O)NC", "note": "[Example 108, N^4-Butyl-2-(6-{[(ethylamino)carbonyl]amino}pyridin-3-yl)-N^5-methyl-1,3-thiazole-4,5-dicarboxamide]", "inhibition at 12.5 µM": 100},
      {"smiles": "CCCCNC(=O)c1nc(-c2ccc(NC(=O)NCC)nc2)sc1C(=O)N(C)C", "note": "[Example 109, N^4-Butyl-2-(6-{[(ethylamino)carbonyl]amino}pyridin-3-yl)-N^5,N^5-dimethyl-1,3-thiazole-4,5-dicarboxamide]", "inhibition at 12.5 µM": 99.5},
      {"smiles": "CCNC(=O)Nc1ccc(-c2nc(C(=O)NC(C)(C)C)c(C(=O)N(C)C)s2)cn1", "note": "[Example 110, N^4-(tert-Butyl)-2-(6-{[(ethylamino)carbonyl]amino}pyridin-3-yl)-N^5,N^5-dimethyl-1,3-thiazole-4,5-dicarboxamide]", "inhibition at 12.5 µM": 101},
      {"smiles": "CCNC(=O)Nc1ccc(-c2nc(C(=O)NC(C)(C)C)c(C(N)=O)s2)cn1", "note": "[Example 111, N^4-(tert-Butyl)-2-(6-{[(ethylamino)carbonyl]amino}pyridin-3-yl)-1,3-thiazole-4,5-dicarboxamide]", "inhibition at 12.5 µM": 101},
      {"smiles": "CCNC(=O)Nc1ccc(-c2nc(-c3nccn3C)c(C(=O)N(C)C)s2)cn1", "note": "[Example 112, 2-(6-{[(Ethylamino)carbonyl]amino}pyridin-3-yl)-N,N-dimethyl-4-(1-methyl-1H-imidazol-2-yl)-1,3-thiazole-5-carboxamide]", "inhibition at 12.5 µM": 99.9},
      {"smiles": "CCNC(=O)Nc1ccc(-c2nc(-c3ncnn3C)c(C(=O)N(C)C)s2)cn1", "note": "[Example 113, 2-(6-{[(Ethylamino)carbonyl]amino}pyridin-3-yl)-N,N-dimethyl-4-(1-methyl-1H-1,2,4-triazol-5-yl)-1,3-thiazole-5-carboxamide]", "inhibition at 12.5 µM": 102},
      {"smiles": "CCNC(=O)Nc1cc(-c2ccccc2)c(-c2cncc(C(N)=O)c2)cn1", "note": "[Example 114, 6′-{[(Ethylamino)carbonyl]amino}-4′-phenyl-3,3′-bipyridine-5-carboxamide]", "inhibition at 12.5 µM": 105},
      {"smiles": "CCNC(=O)Nc1ccc(-c2nc(C(=O)NC)c(C(N)=O)s2)cn1", "note": "[Example 115, 2-(6-{[(Ethylamino)carbonyl]amino}pyridin-3-yl)-N^4-methyl-1,3-thiazole-4,5-dicarboxamide]", "inhibition at 12.5 µM": 99.2},
      {"smiles": "CCNC(=O)Nc1ccc(-c2nc(C(=O)NCCOC)c(C(N)=O)s2)cn1", "note": "[Example 116, 2-(6-{[(Ethylamino)carbonyl]amino}pyridin-3-yl)-N^4-(2-methoxyethyl)-1,3-thiazole-4,5-dicarboxamide]", "inhibition at 12.5 µM": 98.7},
      {"smiles": "CCNC(=O)Nc1ccc(-c2nc(C(=O)N[C@@H](C)COC)c(C(N)=O)s2)cn1", "note": "[Example 117, 2-(6-{[(Ethylamino)carbonyl]amino}pyridin-3-yl)-N^4-[(1S)-2-methoxy-1-methylethyl]-1,3-thiazole-4,5-dicarboxamide]", "inhibition at 12.5 µM": 101},
      {"smiles": "CCNC(=O)Nc1ccc(-c2nc(C(=O)N[C@@H](C)COC)c(C(=O)N(C)C)s2)cn1", "note": "[Example 118, 2-(6-{[(Ethylamino)carbonyl]amino}pyridin-3-yl)-N^4-[(1S)-2-methoxy-1-methylethyl]-N^5,N^5-dimethyl-1,3-thiazole-4,5-dicarboxamide]", "inhibition at 12.5 µM": 102},
      {"smiles": "CCNC(=O)Nc1cc(-c2nc(CC)cs2)c(-c2cncc(C(N)=O)c2)cn1", "note": "[Example 119, 6′-{[(Ethylamino)carbonyl]amino}-4′-(4-ethyl-1,3-thiazol-2-yl)-3,3′-bipyridine-5-carboxamide]", "inhibition at 12.5 µM": 103},
      {"smiles": "CCNC(=O)Nc1cc(-c2nc(C(F)(F)F)cs2)c(-c2cncc(C(N)=O)c2)cn1", "note": "[Example 121, 6′-{[(Ethylamino)carbonyl]amino}-4′-[4-(trifluoromethyl)-1,3-thiazol-2-yl]-3,3′-bipyridine-5-carboxamide]", "inhibition at 12.5 µM": 81.8},
      {"smiles": "CCNC(=O)Nc1cc(-c2nc(C(F)(F)F)cs2)c(-c2cncc(C(=O)NC)c2)cn1", "note": "[Example 122, 6′-{[(Ethylamino)carbonyl]amino}-N-methyl-4′-[4-(trifluoromethyl)-1,3-thiazol-2-yl]-3,3′-bipyridine-5-carboxamide]", "inhibition at 12.5 µM": 85.8},
      {"smiles": "CCNC(=O)Nc1cc(-c2nc(C(F)(F)F)cs2)c(-c2cncc(C(=O)NC(C)(C)C)c2)cn1", "note": "[Example 123, N-(tert-Butyl)-6′-{[(ethylamino)carbonyl]amino}-4′-[4-(trifluoromethyl)-1,3-thiazol-2-yl]-3,3′-bipyridine-5-carboxamide]", "inhibition at 12.5 µM": 96.2},
      {"smiles": "CCNC(=O)Nc1cc(-c2nc(C(F)(F)F)cs2)c(-c2cncc(C(=O)N[C@@H](C)COC)c2)cn1", "note": "[Example 124, 6′-{[(Ethylamino)carbonyl]amino}-N-[(1S)-2-methoxy-1-methylethyl]-4′-[4-(trifluoromethyl)-1,3-thiazol-2-yl]-3,3′-bipyridine-5-carboxamide]", "inhibition at 12.5 µM": 95.1},
      {"smiles": "CCNC(=O)Nc1cc(-c2nc(C(F)(F)F)cs2)c(-c2cncc(C(=O)NC3CCCC3)c2)cn1", "note": "[Example 125, N-Cyclopentyl-6′-{[(ethylamino)carbonyl]amino}-4′-[4-(trifluoromethyl)-1,3-thiazol-2-yl]-3,3′-bipyridine-5-carboxamide]", "inhibition at 12.5 µM": 107},
      {"smiles": "CCNC(=O)Nc1cc(-c2nc(C(F)(F)F)cs2)c(-c2cncc(C(=O)NC3CC3)c2)cn1", "note": "[Example 126, N-Cyclopropyl-6′-{[(ethylamino)carbonyl]amino}-4′-[4-(trifluoromethyl)-1,3-thiazol-2-yl]-3,3′-bipyridine-5-carboxamide]", "inhibition at 12.5 µM": 96.2},
      {"smiles": "CCNC(=O)Nc1cc(-c2nc(C(F)(F)F)cs2)c(-c2ncc(C(=O)NC)s2)cn1", "note": "[Example 127, 2-{6-{[(Ethylamino)carbonyl]amino}-4-[4-(trifluoromethyl)-1,3-thiazol-2-yl]pyridin-3-yl}-N-methyl-1,3-thiazole-5-carboxamide]", "inhibition at 12.5 µM": 97},
      {"smiles": "CCNC(=O)Nc1cc(-c2ccc(F)nc2)c(-c2cncc(C(N)=O)c2)cn1", "note": "[Example 128, 6′-{[(Ethylamino)carbonyl]amino}-6″-fluoro-3,3′:4′,3″-terpyridine-5-carboxamide]", "inhibition at 12.5 µM": 91.5},
      {"smiles": "CNC(=O)c1cncc(-c2cnc(NC(=O)NC(C)C)cc2-c2nc(C(F)(F)F)cs2)c1", "note": "[Example 129, 6′-{[(Isopropylamino)carbonyl]amino}-N-methyl-4′-[4-(trifluoromethyl)-1,3-thiazol-2-yl]-3,3′-bipyridine-5-carboxamide]", "inhibition at 12.5 µM": 100},
      {"smiles": "CCC(C)NC(=O)Nc1cc(-c2nc(C(F)(F)F)cs2)c(-c2cncc(C(=O)NC)c2)cn1", "note": "(centres unmarked) [Example 130, 6′-{[(Sec-butylamino)carbonyl]amino}-N-methyl-4′-[4-(trifluoromethyl)-1,3-thiazol-2-yl]-3,3′-bipyridine-5-carboxamide]", "inhibition at 12.5 µM": 98.7},
      {"smiles": "CCNC(=O)Nc1nc(-c2cccc(C(=O)OC)c2)cs1", "note": "[Example 134, methyl 3-(2-{[(ethylamino)carbonyl]amino}-1,3-thiazol-4-yl)benzoate]", "inhibition at 12.5 µM": 7.09},
      {"smiles": "CCNC(=O)Nc1ncc(-c2nc3cccc(C(=O)OCC)c3s2)cn1", "note": "[Example 135, ethyl 2-(2-{[(ethylamino)carbonyl]amino}pyrimidin-5-yl)-1,3-benzothiazole-7-carboxylate]", "inhibition at 12.5 µM": 0.52},
      {"smiles": "CCNC(=O)Nc1ccc(-c2cccc3nc(C(=O)OCC)cn23)cn1", "note": "[Example 136, ethyl 5-(6-{[(ethylamino)carbonyl]amino}pyridin-3-yl)imidazo[1,2-a]pyridine-2-carboxylate]", "inhibition at 12.5 µM": 61},
      {"smiles": "CCNC(=O)Nc1cc(-c2cccc(C(=O)OCC)c2)ccn1", "note": "[Example 137, ethyl 3-(2-{[(ethylamino)carbonyl]amino}pyridin-4-yl)benzoate]", "inhibition at 12.5 µM": 86.9},
      {"smiles": "CCNC(=O)Nc1cc(-c2ccc(C(=O)OCC)cc2)ccn1", "note": "[Example 138, ethyl 4-(2-{[(ethylamino)carbonyl]amino}pyridin-4-yl)benzoate]", "inhibition at 12.5 µM": 94.8},
      {"smiles": "CCNC(=O)Nc1ccc(-c2ccc3nc(C)c(C(=O)OCC)n3c2)cn1", "note": "[Example 139, ethyl 6-(6-{[(ethylamino)carbonyl]amino}pyridin-3-yl)-2-methylimidazo[1,2-a]pyridine-3-carboxylate]", "inhibition at 12.5 µM": 96.7},
      {"smiles": "CCNC(=O)Nc1ccc(-c2nc(C(=O)N(C)C)c(C(=O)OCC)s2)cn1", "note": "[Example 140, ethyl 4-[(dimethylamino)carbonyl]-2-(6-{[(ethylamino)carbonyl]amino}pyridin-3-yl)-1,3-thiazole-5-carboxylate]", "inhibition at 12.5 µM": 76.6},
      {"smiles": "CCNC(=O)Nc1cc(-c2nc(C(C)(C)C)cs2)c(-c2cncc(C(=O)OCC)c2)cn1", "note": "[Example 141, ethyl 4′-(4-tert-butyl-1,3-thiazol-2-yl)-6′-{[(ethylamino)carbonyl]amino}-3,3′-bipyridine-5-carboxylate]", "inhibition at 12.5 µM": 99.2},
      {"smiles": "CCNC(=O)Nc1nc(-c2cccc(C(=O)O)c2)cs1", "note": "[Example 142, 3-(2-{[(ethylamino)carbonyl]amino}-1,3-thiazol-4-yl)benzoic acid]", "inhibition at 12.5 µM": 0.68},
      {"smiles": "CCNC(=O)Nc1cc(-c2cccc(C(=O)O)c2)ccn1", "note": "[Example 143, 3-(2-{[(ethylamino)carbonyl]amino}pyridin-4-yl)benzoic acid]", "inhibition at 12.5 µM": 99.1},
      {"smiles": "CCNC(=O)Nc1cc(-c2ccc(C(=O)O)cc2)ccn1", "note": "[Example 144, 4-(2-{[(ethylamino)carbonyl]amino}pyridin-4-yl)benzoic acid]", "inhibition at 12.5 µM": 38.6},
      {"smiles": "CCNC(=O)Nc1cc(-c2nc(C(C)(C)C)cs2)c(-c2cncc(C(=O)O)c2)cn1", "note": "[Example 145, 4′-(4-tert-butyl-1,3-thiazol-2-yl)-6′-{[(ethylamino)carbonyl]amino}-3,3′-bipyridine-5-carboxylic acid]", "inhibition at 12.5 µM": 101}
    ]}
  ]
}
